This is an account of results in US6455587B1 (priority 2000, dated 2002).

The target in one experiment is T1, recombinant HIV-1 protease (Human immunodeficiency virus type 1 group M subtype B, UniProt P04585).
T1 construct: recombinant HIV-1 protease (final concentration 2.18 nM) purchased from Bachem Bioscience; purchased Bachem Bioscience
The experiment in a line: Enzymatic fluorometric (FRET) assay for determining the inhibition constant (Ki) against HIV protease. Type of experiment: biochemical. Conditions: Ki (nM), fluorometric FRET assay, recombinant HIV-1 protease, pH 4.7, 31° C. The text has this: An Enzymatic assay for determining the inhibition constant (Ki) of synthetic compounds targeting the HIV protease may be carried out as follows: This is a fluorometric assay based on the cleavage by protease of a substrate carrying a donor group (EDANS) and an acceptor group (DABCYL) on each side of the cleavage site, interacting together through fluorescence resonance energy transfer (FRET). Cleavage of the substrate by protease stops energy exchange between the two groups, resulting in a time-dependent increase in fluorescence intensity that is linearly related to the extent of substrate hydrolysis.
The enzymatic assay is done at 31° C. in white 96-well fluorescence microplates, in a total volume of 200 μL per well. The apparatus used for analysis is a FL600 fluorescence microplate reader (Biotek Instruments). […] Excitation of the fluorophore is done at 340 nm and emission at 485 nm is recorded continuously during the reaction, allowing determination of the enzyme's initial velocity (v0). At the end of the 4 min incubation, the potential inhibitor at a defined concentration in a volume of 4 μL is added to the reaction, and fluorescence readings are taken for another 4 min, allowing determination of enzyme velocity (vi) in the presence of the inhibitory compound. Several concentrations of the putative inhibitors are tested in the assay. After calculation of v0 and vi, the inhibition constant (Ki) of the compound is determined using the equation of Henderson: [formula]
and [I]=inhibitor concentration, [S]=substrate concentration,
Km=Michaelis-Menten constant, Kiapp=apparent Ki
Graphs are traced and the Ki determined using GraphPad Prism software v. 3.0.
As a reminder, the Ki is a measure of affinity in units of concentration, obtained from inhibition or displacement. With `CC(C)CN([C@@H](CCCCNC(=O)C=Cc1cccc([N+](=O)[O-])c1)C(=O)O)S(=O)(=O)c1ccc([N+](=O)[O-])cc1` [Compound 108, Nα-Isobutyl-Nα-(4-nitrobenzenesulfonyl)-Nε-(3-nitrocinnamoyl)-L-lysine], the inhibitory constant (Ki) is more than 300 nM.
As to `CC(C)CN([C@@H](CCCCNS(=O)(=O)c1ccc([N+](=O)[O-])cc1)C(=O)O)S(=O)(=O)c1ccc([N+](=O)[O-])cc1` [Compound 116, Nα-Isobutyl-Nα,Nε-di-(4-nitrobenzenesulfonyl)-L-lysine], the Ki is more than 300 nM.

Still in this experiment, the particulars now being: fluorometric FRET assay, 31° C., pH 4.7, recombinant HIV-1 protease 2.18 nM, substrate 10 μM; read-out: Ki.
In the case of `Cc1ccc(S(=O)(=O)N(CC(C)C)C(CCCCNC(CCc2ccccc2)=NC#N)C(=O)O)cc1` (racemic) [Compound 204, Nα-Isobutyl-Nα-(4-methylbenzenesuIfonyl)-Nε-(dihydrothiocinnamoyl-N-cyanoamidine)-DL-lysine], the Ki is 34 nM.
In the case of `COc1ccc(OC)c(CCC(=O)NCCCC[C@@H](C(=O)O)N(CC(C)C)S(=O)(=O)c2ccc(N)cc2)c1` [Compound 197, Nα-Isobutyl-Nα-(4-aminobenzenesulfonyl)-Nε-(2,5-dimethoxydihydrocinnamoyl)-L-lysine], the Ki is 20.7 nM.
In the case of `Cc1ccc(S(=O)(=O)N(CC(C)C)[C@@H](CCCCNC(=O)COc2ccccc2)C(=O)O)cc1` [Compound 203, Nα-Isobutyl-Nα-(4-methylbenzenesulfonyl)-Nε-phenoxyacetyl-L-lysine], the Ki turned out to be 17.5 nM.
Still for that read-out and setting: with “Nα-Isobutyl-Nα-(4-methylbenzenesulfonyl)-Nε-phenylthioacetyl-L-lysine [Compound 202]” the figure was 18 nM.

Staying with this experiment, now noted: fluorometric FRET assay, recombinant HIV-1 protease, pH 4.7, 31° C.; read-out: Ki.
In the case of `COc1cccc(CCC(=O)NCCCC[C@@H](C(=O)O)N(CC(C)C)S(=O)(=O)c2ccc(N)cc2)c1OC` [Compound 119, Nα-Isobutyl-Nα-(4-aminobenzenesulfonyl)-Nε-(2,3-dimethoxydihydrocinnamoyl)-L-lysine], the Ki came out at 6.2 nM.
The same measure, in the same setting: the same measure for `O=C(O)[C@H](CCCCNS(=O)(=O)c1ccc(Br)cc1)NC(=O)C(O)(c1ccccc1)c1ccccc1` [Compound 37, Nα-(Diphenylhydroxyacetyl)-Nε-(4-bromobenzenesulfonyl)-L-lysine]: 54000 nM.
On to `O=C(N[C@H](CO)CCCCNS(=O)(=O)c1ccc(Br)cc1)OCC1c2ccccc2-c2ccccc21` [Compound 22, (2S)-(9-Fluorenylmethoxycarbonylamino)-6-(4-bromobenzenesulfonylamino)-1-hexanol], for which the inhibitory constant (Ki) was more than 6000 nM.
`Cc1ccc(S(=O)(=O)NCCC[C@H](NC(=O)OCC2c3ccccc3-c3ccccc32)C(=O)O)cc1` [Compound 149, Nδ-(4-Methylbenzenesulfonyl)-Nα-(9-fluorenylmethoxycarbonyl)-L-ornithine]: the inhibition constant Ki is 10100 nM.
For “Nα-Isobutyl-Nα-(4-nitrobenzenesulfonyl)-Nε-(4-nitrocinnamoyl)-L-lysine [Compound 111]”, the inhibition constant Ki was 33 nM.
The same measure, in the same setting: the same measure for `O=C(N[C@@H](CCCCNS(=O)(=O)Cc1ccccc1)C(=O)O)OCC1c2ccccc2-c2ccccc21` [Compound 33, Nε-Phenylmethylsulfonyl-Nα-(9-fluorenylmethoxycarbonyl)-L-lysine]: 20000 nM.
For the compound `CC(C)CN([C@@H](CCCCNC(=O)CCc1c[nH]c2ccccc12)C(=O)O)S(=O)(=O)c1ccc([N+](=O)[O-])cc1` [Compound 95, Nα-Isobutyl-Nα-(4-nitrobenzenesulfonyl)-Nε-(3-indolepropionyl)-L-lysine], the Ki amounted to 33.4 nM.
In the case of `Cc1ccc(S(=O)(=O)N(CC(C)C)[C@@H](CO)CCCCNC(=O)OCC2c3ccccc3-c3ccccc32)cc1` [Compound 124, (2R)-N-Isobutyl-N-(4-methylbenzenesulfonylamino)-6-(9-fluorenylmethoxycarboxylamino)-1-hexanol], the Ki came out at 208 nM.
In the case of `O=C(O)[C@H](CCCCN(Cc1ccc(F)cc1)S(=O)(=O)c1ccc(Br)cc1)NS(=O)(=O)c1ccc(Br)cc1` [Compound 60, Nα,Nε-di-(4-bromobenzenesulfonyl)-Nε-(4-fluorobenzyl)-L-lysine], the Ki is more than 50000 nM.
For `CC(C)CN(CCCC[C@H](NC(=O)OCC1c2ccccc2-c2ccccc21)C(=O)O)S(=O)(=O)c1ccc(Br)cc1` [Compound 21, Nα-(9-Fluorenylmethoxycarbonyl)-Nε-isobutyl-Nε-(4-bromobenzenesulfonyl)-L-lysine], the inhibition constant Ki came out at 2000 nM.
As to “Nα-Isobutyl-Nα-(4-methylbenzenesulfonyl)-Nε-(9-fluorenylmethoxycarbonyl)-L-lysine Methyl Ester [Compound 123]”, the Ki was more than 1250 nM.
The same measure, in the same setting: with `CC(C)CN(C(CCCCNC(=O)OCc1ccccc1)C(=O)O)S(=O)(=O)c1ccc(Cl)cc1` (stereo not shown) [Compound 4] the figure was more than 100 nM; with `Cc1ccc(S(=O)(=O)N(CC(C)C)C(CCCCNC(=O)CC2c3ccccc3-c3ccccc32)C(=O)O)cc1` (stereo not shown) [Compound 84], 89.7 nM; with `CC(C)CN([C@@H](CCCCNC(=O)C1c2ccccc2Oc2ccccc21)C(=O)O)S(=O)(=O)c1ccc([N+](=O)[O-])cc1` [Compound 96, Nα-Isobutyl-Nα-(4-nitrobenzenesulfonyl)-Nε-(9-xanthenecarbonyl)-L-lysine], 43.9 nM.
For the compound `O=C(N[C@@H](CCCCNS(=O)(=O)c1ccc(Br)cc1)C(=O)O)c1ccccc1` [Compound 65, Nα-Benzoyl-Nε-(4-bromobenzenesulfonyl)-L-lysine], the Ki was more than 50000 nM.
The same measure, in the same setting: the same measure for `O=C(N[C@@H](CCCNS(=O)(=O)c1ccc([N+](=O)[O-])cc1)C(=O)O)OCC1c2ccccc2-c2ccccc21` [Compound 62, Nδ-(4-Nitrobenzenesulfonyl)-Nα-(9-fluorenylmethoxycarbonyl)-L-ornithine]: 26200 nM; for `CC1(C)[C@@H]2CC[C@@]1(CS(=O)(=O)NCCCC[C@H](NC(=O)OCC1c3ccccc3-c3ccccc31)C(=O)O)C(=O)C2` [Compound 35, Nε-(1S)-(10-Camphorsulfonyl)-Nα-(9-fluorenylmethoxycarbonyl)-L-lysine]: 33000 nM.
Turning to `Cc1ccc(S(=O)(=O)N(CC(C)C)C(CCCCNC(CCc2ccccc2)=NC#N)C(=O)O)cc1` (racemic) [Compound 204, Nα-Isobutyl-Nα-(4-methylbenzenesuIfonyl)-Nε-(dihydrothiocinnamoyl-N-cyanoamidine)-DL-lysine], the Ki is more than 200000 nM.
As to `CCC(CC)CN([C@@H](CCCCNC(=O)OCc1ccccc1)C(=O)OCc1ccccc1)S(=O)(=O)c1ccc(C)cc1` [Compound 80], the Ki is more than 1250 nM.
As to `O=C(N[C@@H](CCCCNS(=O)(=O)c1ccc(Br)cc1)C(=O)O)C1c2ccccc2-c2ccccc21` [Compound 38, Nα-(9-Fluorenecarbonyl)-Nε-(4-bromobenzenesulfonyl)-L-lysine], the inhibition constant (Ki) was 4700 nM.
`Cc1ccc(S(=O)(=O)N(CC(C)C)[C@@H](CCCCNC(=O)CCc2c[nH]c3ccccc23)C(=O)O)cc1` [Compound 89]: the Ki was determined as 6.9 nM.
For `Nc1ccccc1S(=O)(=O)N[C@@H](CCCCNC(=O)OCC1c2ccccc2-c2ccccc21)C(=O)O` [Compound 105, Nα-(2-Aminobenzenesulfonyl)-Nε-(9-fluorenylmethoxycarbonyl)-L-lysine], the inhibitory constant (Ki) came out at 16000 nM.
Take `O=C(NCCCC[C@H](NS(=O)(=O)c1ccc(Br)cc1)C(=O)O)OCC1c2ccccc2-c2ccccc21` [Compound 66, Nα-(4-Bromobenzenesulfonyl)-Nε-(9-fluorenylmethoxycarbonyl)-L-lysine]: the Ki was found to be 1900 nM.
As to `COc1ccccc1CCC(=O)NCCCC[C@@H](C(=O)O)N(CC(C)C)S(=O)(=O)c1ccc(N)cc1` [Compound 157, Nα-Isobutyl-Nα-(4-aminobenzenesulfonyl)-Nε-(2-methoxydihydrocinnamoyl)-L-lysine], the Ki stood at 18.9 nM.
In the case of `O=C(CC1c2ccccc2-c2ccccc21)N[C@@H](CCCCNS(=O)(=O)c1ccc(Br)cc1)C(=O)O` [Compound 30, Nα-(9-Fluorenemethylcarbonyl)-Nε-(4-bromobenzenesulfonyl)-L-lysine], the inhibition constant (Ki) came to 71000 nM.
For the compound `CC(C)c1cc(C(C)C)c(S(=O)(=O)NCCCC[C@H](NC(=O)OCC2c3ccccc3-c3ccccc32)C(=O)O)c(C(C)C)c1` [Compound 25, Nε-(2,4,6-Triisopropylbenzenesulfonyl)-Nα-(9-fluorenylmethoxycarbonyl)-L-lysine], the Ki is more than 3100 nM.
Take “Nε-(2,4,6-Triisopropylbenzenesulfonyl)-Nα-(9-fluorenylmethoxycarbonyl)-L-lysine [Compound 25]”: the inhibition constant (Ki) stood at 15.4 nM.
For “Nα-Isobutyl-Nα-(4-methylbenzenesulfonyl)-Nε-phenylthioacetyl-L-lysine [Compound 202]”, the Ki is 8400 nM.
With `CC(C)CN([C@@H](CCCCNC(=O)COc1ccccc1)C(=O)O)S(=O)(=O)c1ccc([N+](=O)[O-])cc1` [Compound 160, Nα-Isobutyl-Nα-(4-nitrobenzenesulfonyl)-Nε-phenoxyacetyl-L-lysine], the Ki is 24.5 nM.
As to `COc1ccccc1/C=C/C(=O)NCCCC[C@@H](C(=O)O)N(CC(C)C)S(=O)(=O)c1ccc([N+](=O)[O-])cc1` [Compound 161, Nα-Isobutyl-Nα-(4-nitrobenzenesulfonyl)-Nε-(trans-2-methoxycinnamoyl)-L-lysine], the inhibition constant (Ki) was more than 300 nM.
Consider `O=C(N[C@@H](CCCCNS(=O)(=O)c1ccc2ccccc2c1)C(=O)O)OCC1c2ccccc2-c2ccccc21` [Compound 32, Nε-(2-Naphthalenesulfonyl)-Nα-(9-fluorenylmethoxycarbonyl)-L-lysine], for which the Ki was 10000 nM.
